Assays:
GRP94 [1] = target: T1, GRP94 (Sus scrofa, UniProt Q29092); test: Polarity-sensitive fluorescent probe binding to GRP94 (fluorescence emission); parameters: GRP94 was purified from porcine pancreas; from tissue; host or cells: porcine pancreas (rough microsomes); species or system porcine; conditions: for probe interaction with native versus heat shocked GRP94 (emission spectra): 0.5 μM GRP94, 5 μM probe, 30 min at 37° C.
Method: Fluorescent probes were obtained from Molecular Probes (Eugene, Oreg.). […] All other reagents were obtained from Sigma Chemical Co. (St. Louis, Mo.) unless otherwise indicated. […] Fluorophore Binding Reactions. […] For all assays, control reactions at solvent dilutions identical to experimental conditions were performed to correct for any solvent effects. […] Fluorescence Measurements. Emission spectra were obtained in a FLUOROMAXTM spectrofluorometer (SPEX Industries Inc. of Edison, N.J.) operating in photon counting mode. Spectra were recorded and processed with DM3000f operating software, version 2.1 (SPEX Industries Inc. of Edison, N.J.). For emission scans, slit width was set at 1 nm. […] All spectra were background corrected.

HSP90 [2] = conditions: Prodromou et al. (1997); cited from earlier work
GRP94 [3] = target: T1, GRP94; test: [3H]-NECA competitive displacement assay; conditions: for competition with [3H]-NECA for binding to GRP94: nominal (80 μM) Mg2+; for relative affinities of binding to GRP94 in excess Mg2+: 10 mM Mg(OAc)2; for effect of excess Mg2+ on binding to GRP94: 10 mM Mg(OAc)2 versus nominal magnesium; for relative affinity of GRP94 for the nucleotide: NECA displacement; for binding to GRP94, nucleoside base specificity by [3H]-NECA displacement: competitors at 50 μM
Method: (§3) Where indicated, binding reactions were performed in either buffer C (10 mM Tris, pH 7.5, 50 mM KCl, 5 mM MgCl2, 2 mM DTT, 0.01% NP-40, 20 mM Na2MoO4) or 50 mM Tris, pH 7.5, 10 mM Mg(OAc)2. […] Vacuum filtration was performed with an Amersham Pharmacia Biotech (Piscataway, N.J.) vacuum filtration manifold.

GRP94 [4] = target: T1, GRP94; test: Tryptophan fluorescence of GRP94 (tertiary conformational state); format: biochemical, porcine; parameters: GRP94 was purified from porcine pancreas; from tissue; host or cells: porcine pancreas (rough microsomes); conditions: 50 μM NECA, 50 μM geldanamycin, 2.5 mM ATP or 2.5 mM ADP, 1 hour at 37° C., excitation 295 nm
Method: Tryptophan Fluorescence. Tryptophan fluorescence measurements were conducted in a FLUOROMAX™ spectrofluorometer (Spex Industries, Inc. of Edison, N.J.) with the slit widths set to 1 nm for both excitation and emission. […] All spectra were corrected by subtraction of buffer or buffer plus ligand samples. […] Samples were then cooled to room temperature, transferred to a quartz cuvette, and the spectra collected.

BiP [5] = test: [32P]ATP binding assay; parameters: species or system porcine; conditions: 50 μM [32P]ATP, 1 hour on ice
Method: (§1) ATP Binding Assay. Six:g of GRP94, BiP, and Hsp90 was incubated with 50:M (-[^32P] ATP (1000 ΦCi/Φmol) (Amersham Pharmacia Biotech of Piscataway, N.J.) in buffer B on ice for 1 hour. Nitrocellulose filters (BA85) (Schleicher & Schuell of Keene, N.H.) were individually wet in buffer B before use, and bound versus free [^32P]-ATP was separated by vacuum filtration. Filters were washed with 3×2 mL of ice cold buffer B, placed in 5 mL of scintillation fluid, vortexed, and counted.

Hsp90 [6] = test: [32P]ATP binding assay; parameters: species or system rat; conditions: 50 μM [32P]ATP, 1 hour on ice
Method: as §1

GRP94 [7] = target: T1, GRP94; test: [32P]ATP binding assay; parameters: GRP94 was purified from porcine pancreas; from tissue; host or cells: porcine pancreas (rough microsomes); species or system porcine; conditions: 50 μM [32P]ATP, 1 hour on ice
Method: as §1

casein kinase II = casein kinase II (Homo sapiens, UniProt P68400); test: Casein kinase assay; format: biochemical; conditions: 180 μM NECA or radicicol in 3.6% DMSO, 5 μg/ml heparin, 5 mM GTP
Method: (§2) Phosphorylation Assays. […] For the casein kinase assay, 1 unit of casein kinase II was incubated as described above, with the addition of 4:M casein. […] The 25:I reaction mixtures were incubated at 37° C. for 1 hour and quenched by addition of 10% trichloroacetic acid. Samples were analyzed by 10% SDS-PAGE gels and the phosphorylated species were quantitated using a Fuji MACBAS1000™ phosphorimaging system (Fuji Medical Systems of Stamford, Conn.).

GRP94 [8] = target: T1, GRP94; test: GRP94 autophosphorylation assay; format: biochemical, porcine; parameters: GRP94 was purified from porcine pancreas; from tissue; host or cells: porcine pancreas (rough microsomes); conditions: 180 μM NECA or radicicol in 3.6% DMSO, 5 μg/ml heparin, 5 mM GTP
Method: as §2

GRP94 [9] = target: T1, GRP94; test: [3H]-NECA binding assay (vacuum filtration)
Method: as §3

BiP [10] = test: [3H]-NECA binding assay (vacuum filtration); conditions: 20 nM [3H]-NECA, 60 min on ice
Method: as §3

GRP94 [11] = target: T1, GRP94; test: Isothermal titration calorimetry; format: binding, porcine; parameters: GRP94 was purified from porcine pancreas; from tissue; host or cells: porcine pancreas (rough microsomes); conditions: 5 μM GRP94, 152 μM NECA stock, 25° C.
Method: Isothermal calorimetry experiments were performed at 25° C. using a MSC calorimeter (MicroCal Inc. of Northampton, Mass.). […] Necessary corrections were made by subtracting the heats of dilution resulting from buffer addition to protein solution and ligand solution into buffer.

GRP94 [12] = target: T1, GRP94; test: ATPase assay (HPLC); format: biochemical, porcine; parameters: GRP94 was purified from porcine pancreas; from tissue; host or cells: porcine pancreas (rough microsomes)
Method: Samples were then spun through a CENTRICON®-30 (Amicon of Beverly, Mass.) at 10,000 rpm, 4° C. to separate protein from nucleotide. A final concentration of 50 mM (NH4)2HPO4, pH 7.0, and 4:M AMP, pH 7.0, was added to dilutions of the above samples and centrifuged at 15,200 rpm for 5 minutes at 4° C. 100:L of supernatant was then fractionated on a […] column (Alltech of Deerfield, Ill.), using a Series 1050 Hewlett Packard HPLC system. Elution of nucleotides was performed by step gradient elution using a mobile phase of 150 mM (NH4)2HPO4, pH 5.2, at 1.2 ml/min for the first ten minutes, followed by 300 mM (NH4)2HPO4, pH 5.2, at a flow rate of 2 ml/min for the remainder of the elution. In this protocol, ADP and ATP were well resolved, with ADP eluting at 7 minutes and ATP at 12 minutes. Peak height values were used in calculations of percent hydrolysis and ADP formation. Spontaneous hydrolysis was determined for each ATP concentration in paired incubations lacking GRP94. The AMP was used as an internal reference standard to control for equivalent sample loading.

HSP90 [13] = target: HSP90 (Saccharomyces cerevisiae, UniProt P02829); conditions: Roe et al. (1999); cited from earlier work
Chain of HSP90 (Saccharomyces cerevisiae, UniProt P02829) (P02829 whole entry): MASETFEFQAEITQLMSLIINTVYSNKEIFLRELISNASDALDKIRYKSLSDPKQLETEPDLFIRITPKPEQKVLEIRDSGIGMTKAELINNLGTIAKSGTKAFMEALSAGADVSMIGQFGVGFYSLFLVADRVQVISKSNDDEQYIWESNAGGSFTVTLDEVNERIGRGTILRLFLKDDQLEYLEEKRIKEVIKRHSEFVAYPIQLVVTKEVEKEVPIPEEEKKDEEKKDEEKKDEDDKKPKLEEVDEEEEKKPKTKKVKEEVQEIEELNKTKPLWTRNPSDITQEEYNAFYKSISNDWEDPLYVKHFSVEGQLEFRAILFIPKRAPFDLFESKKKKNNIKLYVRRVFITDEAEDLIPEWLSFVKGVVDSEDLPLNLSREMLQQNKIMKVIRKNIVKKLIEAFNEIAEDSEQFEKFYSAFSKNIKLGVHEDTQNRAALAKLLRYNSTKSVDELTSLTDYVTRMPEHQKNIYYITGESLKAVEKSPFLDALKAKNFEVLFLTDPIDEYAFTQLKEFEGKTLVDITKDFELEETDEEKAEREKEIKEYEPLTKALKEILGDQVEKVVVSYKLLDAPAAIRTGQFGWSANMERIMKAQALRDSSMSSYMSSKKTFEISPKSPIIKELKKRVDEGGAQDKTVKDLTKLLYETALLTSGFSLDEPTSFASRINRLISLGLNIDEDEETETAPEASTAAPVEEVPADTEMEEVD

T1 sequence (Q29092 22-804): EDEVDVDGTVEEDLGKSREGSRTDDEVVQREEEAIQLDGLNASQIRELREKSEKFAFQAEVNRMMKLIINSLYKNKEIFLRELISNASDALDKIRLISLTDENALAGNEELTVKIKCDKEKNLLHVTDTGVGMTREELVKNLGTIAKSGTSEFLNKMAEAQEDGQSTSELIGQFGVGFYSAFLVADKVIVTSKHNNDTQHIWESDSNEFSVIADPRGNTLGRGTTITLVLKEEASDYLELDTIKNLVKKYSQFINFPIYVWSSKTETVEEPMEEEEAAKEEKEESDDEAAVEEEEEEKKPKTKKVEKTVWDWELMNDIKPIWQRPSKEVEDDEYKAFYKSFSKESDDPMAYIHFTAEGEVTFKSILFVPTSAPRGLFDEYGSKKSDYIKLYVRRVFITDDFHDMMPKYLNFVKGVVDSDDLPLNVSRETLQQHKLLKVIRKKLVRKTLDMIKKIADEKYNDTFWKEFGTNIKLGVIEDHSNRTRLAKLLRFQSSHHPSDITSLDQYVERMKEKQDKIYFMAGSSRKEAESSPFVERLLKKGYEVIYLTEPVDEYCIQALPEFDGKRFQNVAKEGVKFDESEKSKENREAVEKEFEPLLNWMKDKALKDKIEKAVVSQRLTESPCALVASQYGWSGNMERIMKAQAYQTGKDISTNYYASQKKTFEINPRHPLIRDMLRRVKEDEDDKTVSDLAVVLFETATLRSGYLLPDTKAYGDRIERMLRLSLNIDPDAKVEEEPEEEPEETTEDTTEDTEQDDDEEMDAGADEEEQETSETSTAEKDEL
Chain of casein kinase II (P68400 whole entry): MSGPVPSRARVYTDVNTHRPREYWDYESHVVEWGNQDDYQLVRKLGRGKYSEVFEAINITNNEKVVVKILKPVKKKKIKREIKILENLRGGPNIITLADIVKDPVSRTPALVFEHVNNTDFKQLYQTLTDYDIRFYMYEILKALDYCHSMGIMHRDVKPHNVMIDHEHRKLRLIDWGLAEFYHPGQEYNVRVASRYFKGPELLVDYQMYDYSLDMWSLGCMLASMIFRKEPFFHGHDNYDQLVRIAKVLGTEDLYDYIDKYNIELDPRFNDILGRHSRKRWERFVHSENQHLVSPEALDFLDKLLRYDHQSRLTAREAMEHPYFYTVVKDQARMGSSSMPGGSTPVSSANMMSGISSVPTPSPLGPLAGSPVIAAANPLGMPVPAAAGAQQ
Chain of casein kinase II (P67870 whole entry partner): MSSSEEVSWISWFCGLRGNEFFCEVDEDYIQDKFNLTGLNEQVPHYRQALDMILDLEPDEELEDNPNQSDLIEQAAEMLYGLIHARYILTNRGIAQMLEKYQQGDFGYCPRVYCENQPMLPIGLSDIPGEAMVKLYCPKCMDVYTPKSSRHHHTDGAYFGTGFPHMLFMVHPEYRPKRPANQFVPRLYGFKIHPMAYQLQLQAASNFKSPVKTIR

For `O=S(=O)(O)c1cccc2cccc(Nc3ccccc3)c12` [8-ANS, 1,8-anilinonaphthalenesulfonate], the “agonist activity for GRP94 activation” value (GRP94 [1]) was “lacks agonist activity” and the “probe interaction with native versus heat shocked GRP94 (emission spectra)” value (GRP94 [1]) was “displays weak interactions with native GRP94, yet binds avidly following heat shock”.
In the case of `Nc1ncnc2c1ncn2[C@@H]1O[C@H](COP(=O)(O)OP(=O)(O)O)[C@@H](O)[C@H]1O` [ADP], the “affinity of N-terminal domain of Hsp90 for ADP relative to ATP” value (HSP90 [2]) is given as “four”, the “competition with [3H]-NECA for binding to GRP94” value (shortened to “competition with [3H]-NECA”) (GRP94 [3]; 20 nM [3H]-NECA) is given as “effectively competed” and the “relative affinities of binding to GRP94 in excess Mg2+” value (GRP94 [3]) is given as “nearly identical relative affinities”. For the same compound, the “effect of excess Mg2+ on binding to GRP94” value (from here on “effect of excess Mg2+”) (GRP94 [3]) was “markedly stimulated”, the “relative affinity of GRP94 for the nucleotide” value (“relative affinity of GRP94” below) (GRP94 [3]) was “quite low” and the “change of GRP94 tryptophan fluorescence” value (GRP94 [4]) was “decreased”.
With `Nc1ncnc2c1ncn2[C@@H]1O[C@H](COP(=O)(O)O)[C@@H](O)[C@H]1O` [AMP] the “competition with [3H]-NECA” value (GRP94 [3]; 20 nM [3H]-NECA) was “effectively competed”, the “effect of excess Mg2+” value (GRP94 [3]) was “markedly stimulated” and the “relative affinity of GRP94” value (GRP94 [3]) was “quite low”.
For `Nc1ncnc2c1ncn2[C@@H]1O[C@H](COP(=O)(O)OP(=O)(O)OP(=O)(O)O)[C@@H](O)[C@H]1O` [ATP], the ATP binding (BiP [5]) was “displayed the expected ATP binding activity”, the ATP binding (Hsp90 [6]) was “no ATP binding was observed” and the “molar excess required for 50% inhibition of [3H]-NECA binding” value (GRP94 [3]; 20 nM [3H]-NECA) was ~1000 -fold molar excess. For the same compound, the “competition with [3H]-NECA” value (GRP94 [3]; 20 nM [3H]-NECA) was “effectively competed”, the “relative affinities of binding to GRP94 in excess Mg2+” value (GRP94 [3]) was “nearly identical relative affinities” and the “effect of excess Mg2+” value (GRP94 [3]) was “markedly stimulated”. The “relative affinity of GRP94” value (GRP94 [3]) was “quite low”, the “binding to GRP94, nucleoside base specificity by [3H]-NECA displacement” value (“binding to GRP94 … [3H]-NECA displacement” below) (GRP94 [3]; 20 nM [3H]-NECA) was “could bind” and the “efficacy of competing NECA binding, ATP relative to ADP” value (GRP94 [3]; nominal Mg2+) was “eight”. The ATP binding (GRP94 [7]) was “no ATP binding was observed” and the “change of GRP94 tryptophan fluorescence” value (GRP94 [4]) was “decreased”.
For `Nc1ccn([C@@H]2O[C@H](COP(=O)(O)OP(=O)(O)OP(=O)(O)O)[C@@H](O)[C@H]2O)c(=O)n1` [CTP], the “binding to GRP94 … [3H]-NECA displacement” value (GRP94 [3]; 20 nM [3H]-NECA) was “little to no binding”.
For `Nc1nc2c(ncn2[C@@H]2O[C@H](COP(=O)(O)OP(=O)(O)OP(=O)(O)O)[C@@H](O)[C@H]2O)c(=O)[nH]1` [GTP], the “effect on casein kinase II activity” value (casein kinase II) was “markedly attenuated”, the “binding to GRP94 … [3H]-NECA displacement” value (GRP94 [3]; 20 nM [3H]-NECA) was “little to no binding” and the “effect on GRP94 autophosphorylation (GRP94-derived kinase) activity” value (shortened to “effect on GRP94 autophosphorylation”) (GRP94 [8]) was “markedly attenuated”.
For `CCNC(=O)[C@H]1O[C@@H](n2cnc3c(N)ncnc32)[C@H](O)[C@@H]1O` [NECA, N-ethylcarboxamidoadenosine], the “effect on casein kinase II activity” value (casein kinase II) was “neither NECA nor radicicol, both of which bind to the N-terminal nucleotide binding domain of GRP94, significantly inhibit GRP94 derived or casein kinase II activity below the solvent background”, the “effect of excess Mg2+” value (GRP94 [3]) was “without effect” and the “slope of Hill plot” value (GRP94 [9]) was 1.2. The “[3H]-NECA binding activity” value (GRP94 [9]; 20 nM [3H]-NECA, 60 min on ice) was “readily detectable”, the binding stoichiometry (GRP94 [9]; radioligand, vacuum filtration) was 0.5 mol [^3H]-NECA/mol GRP94 monomer and the “[3H]-NECA binding activity” value (BiP [10]) was “not observed”. For the same compound, the “binding stoichiometry by isothermal titration calorimetry” value (GRP94 [11]) was 1.1 mol NECA/mol GRP94 dimer, the “effect on GRP94 autophosphorylation” value (GRP94 [8]) was “neither NECA nor radicicol, both of which bind to the N-terminal nucleotide binding domain of GRP94, significantly inhibit GRP94 derived or casein kinase II activity below the solvent background” and the “effect on GRP94 ATPase activity” value (GRP94 [12]) was “sensitive to inhibition by NECA”. For the same compound, the “change of GRP94 tryptophan fluorescence” value (GRP94 [4]) was “increased the tryptophan fluorescence”.
In the case of `CCC(=O)c1ccc2cc(N(C)C)ccc2c1` [Prodan, 6-propionyl-2-(dimethylamino)naphthalene], the “probe interaction with native versus heat shocked GRP94 (emission spectra)” value (GRP94 [1]) was “does not interact with the hydrophobic binding pocket(s) displayed by heat shocked GRP94”.
In the case of `O=c1ccn([C@@H]2O[C@H](COP(=O)(O)OP(=O)(O)OP(=O)(O)O)[C@@H](O)[C@H]2O)c(=O)[nH]1` [UTP], the “binding to GRP94 … [3H]-NECA displacement” value (GRP94 [3]; 20 nM [3H]-NECA) was “little to no binding”.
With `Nc1ncnc2c1ncn2[C@@H]1O[C@H](CO)[C@@H](O)[C@H]1O` [adenosine] the “relative displacement activity of [3H]-NECA” value (GRP94 [3]; 20 nM [3H]-NECA) was “approximating that observed for ADP” and the “effect of excess Mg2+” value (GRP94 [3]) was “without effect”.
For `Nc1ncnc2c1ncn2[C@H]1C[C@H](O)[C@@H](COP(=O)(O)OP(=O)(O)OP(=O)(O)O)O1` [deoxyATP], the “binding to GRP94 … [3H]-NECA displacement” value (GRP94 [3]; 20 nM [3H]-NECA) was “could bind”.
For `C[C@@H]1C[C@H]2O[C@@H]2/C=C\C=C\C(=O)Cc2c(Cl)c(O)cc(O)c2C(=O)O1` [radicicol], the “effect on casein kinase II activity” value (casein kinase II) is listed as “neither NECA nor radicicol, both of which bind to the N-terminal nucleotide binding domain of GRP94, significantly inhibit GRP94 derived or casein kinase II activity below the solvent background” and the expected binding stoichiometry (HSP90 [13]) is listed as 2 mol radicicol/mol Hsp90 dimer.
In the case of heparin, the “effect on casein kinase II activity” value (casein kinase II) was “markedly attenuated” and the “effect on GRP94 autophosphorylation” value (GRP94 [8]) was “markedly attenuated”.
